Results reported in publication PMC11597478, “Kinin B1- and B2-Receptor Subtypes Contract Isolated Bovine Ciliary Muscle: Their Role in Ocular Lens Function and Intraocular Pressure Reduction” (Pharmaceuticals, 2024).
Read-outs that look alike come from different tables or passages of the source. Square brackets hold non-standard residues; d marks the D form. Peptide text beside a SMILES is read from it. * marks the point of attachment. X1 = COc1ccc(C[C@@H](CN[C@@H](CCCNC(=N)N)C(=O)O)N*)cc1; Hyp = O=C(O)[C@@H]1C[C@@H](O)CN1; 2Thi = N[C@@H](Cc1cccs1)C(=O)O

Experiments:
[1] = system: bovine ciliary muscle (BCM) strips; test: tissue or blood; type: cell-based; settings: for share of the maximal contraction accounted for by the first high affinity/potency phase: biphasic C-R curve, BCM strips; for Max. Tension Generated During Contraction: freshly isolated BCM strips, Krebs 37 °C, 1 g load, 7–11 concentrations (0.1 nM–10 µM), mean ± SEM, 3–8 experiments
Experimental: The methods utilized in the current studies were adapted from Lograno and Romano [13] and Ohia et al., with some minor modifications. Fresh bovine eyeballs were obtained from a local abattoir (Fisher Ham and Meat Company, Houston, TX, USA) and transported to the laboratory in ice. Whole eyeballs were placed in warm oxygenated Krebs buffer solution for 30 min to ensure equilibration before dissection of the ciliary muscle. Briefly, the anterior segment was dissected out of whole eyeballs after an incision was made at the limbus. The anterior segment containing the cornea, anterior uvea, and lens was then inverted and the lens dislodged with a probe along with the attached vitreous humor. After removal of the vitreous humor and lens, the whole ciliary muscle (comprising both longitudinal and circular portions) was quickly isolated and dissected from the scleral spur and choroid. Muscle strips of 4–5 mm in length were cut and mounted in 25 mL organ baths containing oxygenated Krebs solution at 37 °C using a silk thread linked to an isometric strain gauge under a constant load of 1g tension. The tissues were then allowed to equilibrate for 30 min. Two ciliary muscle strips were prepared from each eyeball and four to eight strips were used for each series of experiments. The composition of the Krebs solution used (mM) was NaCl, 118; KCl, 4.8; CaCl2, 2.5; KH2PO4, 1.2; NaHCO3, 25; MgSO4, 2.0; dextrose, 10 and flurbiprofen, 0.003 (pH 7.4), all purchased from Sigma-Aldrich, St. Louis, MO (USA). […] A robust response was characterized as a single contraction that consistently yielded a tension in the muscle induced by carbachol of 0.15–0.3 gm. […] Tissue strips were then thoroughly rinsed with fresh buffer solution via a series of buffer additions and drainage activities to remove any residual muscarinic agonist, and the preload was readjusted prior to starting the actual study with kininergic ligands. Concentration–response studies employed 7–11 compound concentrations (0.1 nM to 10 µM) and data from multiple experiments were collected.
The contractile responses obtained were expressed as gram tension developed and as percentages of the maximum response of each of the compounds. GraphPad Prism 4.0 Software (San Diego, CA, USA) was then used to construct the concentration–response curves for the kinins and to derive the half-maximal stimulation potencies (EC50) of each phase of the bi-phasic curves and the values tabulated as previously described.

[2] = target: kinin B1 receptor (Mus musculus) (UniProt Q61125); settings: cited from earlier work
[3] = target: kinin B2 receptor (Oryctolagus cuniculus) (UniProt Q28642); settings: cited from earlier work
[4] = target: kinin B2 receptor (Mus musculus) (UniProt P32299); settings: cited from earlier work
[5] = target: kinin B1 receptor (Mus musculus) (UniProt Q61125); settings: cited from earlier work; remark: listed apart in the source
[6] = target: kinin B1 receptor (Homo sapiens) (UniProt P46663); settings: cited from earlier work
[7] = target: kinin B1 receptor (Oryctolagus cuniculus) (UniProt P48748); settings: cited from earlier work
[8] = target: kinin B2 receptor (Homo sapiens) (UniProt P30411); settings: cited from earlier work
UniProt P30411, sequence (P30411 whole entry): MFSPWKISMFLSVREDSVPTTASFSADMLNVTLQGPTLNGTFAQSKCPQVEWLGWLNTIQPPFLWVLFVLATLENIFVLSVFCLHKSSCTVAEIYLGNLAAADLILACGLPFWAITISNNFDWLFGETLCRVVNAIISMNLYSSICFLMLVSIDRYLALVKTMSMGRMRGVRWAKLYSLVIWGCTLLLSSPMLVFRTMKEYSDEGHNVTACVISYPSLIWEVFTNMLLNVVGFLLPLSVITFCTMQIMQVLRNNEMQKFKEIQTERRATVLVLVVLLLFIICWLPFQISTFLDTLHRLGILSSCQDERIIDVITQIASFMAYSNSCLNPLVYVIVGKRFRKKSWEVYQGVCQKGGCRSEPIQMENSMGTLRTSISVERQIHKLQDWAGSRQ

UniProt Q61125, sequence (Q61125 whole entry): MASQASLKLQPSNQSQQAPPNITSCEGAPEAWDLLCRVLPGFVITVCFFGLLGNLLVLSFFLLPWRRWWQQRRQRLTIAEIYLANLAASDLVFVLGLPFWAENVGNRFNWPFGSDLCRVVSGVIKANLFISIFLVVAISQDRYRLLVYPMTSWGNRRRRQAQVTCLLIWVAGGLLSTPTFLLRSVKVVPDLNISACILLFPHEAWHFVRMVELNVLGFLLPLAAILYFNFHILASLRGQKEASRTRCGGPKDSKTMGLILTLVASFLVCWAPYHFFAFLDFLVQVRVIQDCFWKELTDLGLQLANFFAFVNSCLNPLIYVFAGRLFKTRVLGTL
UniProt Q28642, sequence (Q28642 whole entry): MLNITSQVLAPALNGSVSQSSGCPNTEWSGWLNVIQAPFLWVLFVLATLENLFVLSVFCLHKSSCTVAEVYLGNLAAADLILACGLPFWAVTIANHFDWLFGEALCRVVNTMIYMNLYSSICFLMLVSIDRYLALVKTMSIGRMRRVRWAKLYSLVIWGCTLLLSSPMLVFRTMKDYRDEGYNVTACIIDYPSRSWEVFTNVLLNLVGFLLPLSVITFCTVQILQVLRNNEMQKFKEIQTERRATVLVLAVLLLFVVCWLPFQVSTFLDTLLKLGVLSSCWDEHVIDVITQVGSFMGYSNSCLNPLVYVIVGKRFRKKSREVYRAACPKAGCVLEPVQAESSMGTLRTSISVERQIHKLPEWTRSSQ
UniProt P46663, sequence (P46663 whole entry): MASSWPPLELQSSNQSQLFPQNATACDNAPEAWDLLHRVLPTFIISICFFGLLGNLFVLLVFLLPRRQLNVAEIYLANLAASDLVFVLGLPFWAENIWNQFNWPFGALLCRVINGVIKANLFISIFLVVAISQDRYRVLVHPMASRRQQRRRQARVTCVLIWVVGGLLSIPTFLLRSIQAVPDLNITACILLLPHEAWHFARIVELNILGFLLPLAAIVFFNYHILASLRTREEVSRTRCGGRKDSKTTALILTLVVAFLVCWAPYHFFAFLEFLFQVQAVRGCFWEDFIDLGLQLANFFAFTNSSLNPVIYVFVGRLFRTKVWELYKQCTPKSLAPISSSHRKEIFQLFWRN
UniProt P48748, sequence (P48748 whole entry): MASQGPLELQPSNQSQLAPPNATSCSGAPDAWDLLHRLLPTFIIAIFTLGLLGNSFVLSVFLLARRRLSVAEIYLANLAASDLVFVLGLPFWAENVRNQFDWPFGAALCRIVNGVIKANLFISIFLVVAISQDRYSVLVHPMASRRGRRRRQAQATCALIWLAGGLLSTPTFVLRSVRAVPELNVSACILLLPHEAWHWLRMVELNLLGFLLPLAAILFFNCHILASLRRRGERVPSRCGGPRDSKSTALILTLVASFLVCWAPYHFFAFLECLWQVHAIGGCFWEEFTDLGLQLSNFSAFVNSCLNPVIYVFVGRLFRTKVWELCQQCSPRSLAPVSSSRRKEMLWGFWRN
UniProt P32299, sequence (P32299 whole entry): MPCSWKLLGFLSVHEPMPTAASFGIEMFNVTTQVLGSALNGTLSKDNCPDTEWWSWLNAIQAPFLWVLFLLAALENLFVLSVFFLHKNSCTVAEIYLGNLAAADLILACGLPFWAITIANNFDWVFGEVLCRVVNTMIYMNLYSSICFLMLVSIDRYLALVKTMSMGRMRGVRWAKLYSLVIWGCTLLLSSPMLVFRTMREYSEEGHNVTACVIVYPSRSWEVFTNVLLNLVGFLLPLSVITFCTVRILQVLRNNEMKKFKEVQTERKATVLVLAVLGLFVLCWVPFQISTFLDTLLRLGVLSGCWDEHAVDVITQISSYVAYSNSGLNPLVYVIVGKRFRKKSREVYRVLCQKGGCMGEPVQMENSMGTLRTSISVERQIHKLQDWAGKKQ

With `CN1[C@@H]2CC[C@H]1C[C@@H](OC(=O)C(CO)c1ccccc1)C2` (stereo partly shown) [atropine] the EC50 ([1]; Bos taurus, carbachol C-R curve in the absence and presence of atropine, n = 6, read-out: potency (EC50) from monophasic carbachol concentration-response curve) was 1000 ± 70 nM and the “effect of muscarinic antagonist on carbachol-induced BCM contraction” value ([1]; increasing concentrations of atropine, n = 6–8) was “concentration-dependently blocked”.
For `N=C(N)NCCC[C@H](NC(=O)[C@H](Cc1ccccc1)NC(=O)[C@@H]1CCCN1C(=O)[C@H](CO)NC(=O)[C@H](Cc1ccccc1)NC(=O)CNC(=O)[C@@H]1C[C@@H](O)CN1C(=O)[C@@H]1CCCN1C(=O)[C@@H](N)CCCNC(=N)N)C(=O)O` [Hyp^3-BK, Hyp^3-Bradykinin], the “share of the maximal contraction accounted for by the first high affinity/potency phase” value (from here on “share … by the first high affinity/potency phase”) [1] was 40–60% and the “Max. Tension Generated During Contraction” value [1] was 0.04 ± 0.01 gm tension.
For `N=C(N)NCCC[C@H](NC(=O)[C@H](Cc1ccccc1)NC(=O)[C@@H]1CCCN1C(=O)[C@H](CO)NC(=O)[C@H](Cc1ccccc1)NC(=O)CNC(=O)[C@@H]1CCCN1C(=O)[C@@H]1CCCN1C(=O)[C@H](CCCNC(=N)N)NC(=O)[C@@H](N)CCCCN)C(=O)O` [Lys-BK, Lys-Bradykinin], the “share … by the first high affinity/potency phase” value [1] was 40–60% and the “Max. Tension Generated During Contraction” value [1] was 0.06 ± 0.01 gm tension.
For “Des-Arg9-bradykinin (from UniProt P01042)”, the Ki [2] is given as 0.7 nM.
In the case of `CSCC[C@H](N)C(=O)N[C@@H](CCCCN)C(=O)N[C@@H](CCCNC(=N)N)C(=O)N1CCC[C@H]1C(=O)N1CCC[C@H]1C(=O)NCC(=O)N[C@@H](Cc1ccccc1)C(=O)N[C@@H](CO)C(=O)N1CCC[C@H]1C(=O)N[C@@H](Cc1ccccc1)C(=O)N[C@@H](CCCNC(=N)N)C(=O)O` [Met-Lys-BK, Met-Lys-Bradykinin], the “share … by the first high affinity/potency phase” value [1] is reported as 40–60% and the “Max. Tension Generated During Contraction” value [1] is reported as 0.06 ± 0.01 gm tension.
In the case of `C[N+](C)(C)CCOC(N)=O` [carbachol], the “contraction of BCM by positive control agent” value ([1]; monophasic concentration-dependent profile, n = 6–8) is reported as “always contracted the tissue”.
For Bradykinin (from UniProt P01042), the Ki [3] is given as 4.5 nM, the Ki [4] is given as 0.48 nM and the Ki [5] is given as 200 nM. The Ki [6] was 10000 nM, the Ki [7] was 5000 nM and the Ki [8] was 0.54 nM.
In the case of `COc1ccc(C[C@@H](CN[C@@H](CCCNC(=N)N)C(=O)O)NC(=O)[C@@H]2CCCN2C(=O)[C@H](CO)NC(=O)[C@H](Cc2cccs2)NC(=O)CNC(=O)[C@@H]2C[C@@H](O)CN2C(=O)[C@@H]2CCCN2C(=O)[C@@H](N)CCCNC(=N)N)cc1` [RMP-7] (H-RP[Hyp]G[2Thi]SP-X1), the EC50 [1] is reported as 3.5 ± 0.5 nM, the “share … by the first high affinity/potency phase” value [1] is reported as 40–60% and the “Max. Tension Generated During Contraction” value [1] is reported as 0.07 ± 0.01 gm tension.
